Data on 4 substances can be found in patent publication US10336790B2 (priority 2014, dated 2019).

For data set [1], the system named is M. tuberculosis strain MC26230.
Data set [2] has as its system lung epithelial A549 cell line. The experiment in a line: Peptide cytotoxicity, Trypan Blue exclusion assay. The data set is classed as cell-based, human. The procedure: (§1) Cytotoxicity studies were performed using three mammalian cell lines which included mouse macrophage J774.16 cell line, human lung epithelial A549 cell line, and sheep red blood cells (sRBCs) in Trypticase soy agar (TSA). Mouse macrophage J774.16 cell line (maintained in antibiotic-free Dulbecco's modified Eagle's medium containing 20% fetal bovine serum, 5% NCTC 109, 1% nonessential amino acids and 1% glutamine) or human lung epithelial A549 cell line (maintained in antibiotic-free Ham's F12 medium supplemented with 10% fetal bovine serum) was seeded at a density of approximately 1×10^5 cells per ml in Lab-tek Permanox eight-chamber microscopy slides (Nunc, Inc., Naperville, Ill.) and incubated for 3 (J774.16) or 5 (A549) days before use. After cell differentiation to a confluence of 70 to 80%, the culture media was replaced with fresh media containing the different AMPS at 64 μg/ml or at toxic dose (320 μg/ml) or controls (media only for negative control or 50 μM NaN3 for positive control). Similarly, AMPS or 1% Triton 100-X as positive control or media only (negative control) was each added to separate wells and allowed to be absorbed into agar at room temperature. All experiments were incubated for 24 hr at 37° C., 5% CO2. All experiments were done in duplicates. Cytotoxicity for J774.16 or A549 cells was monitored using Trypan Blue exclusion assay and the ratio of dead to viable cells was recorded. For sRBCs, the presence of cell lysis after 24 hr of incubation at 37° C. following treatment indicated cytotoxicity.

Another data set relates to macrophage J774.16 cells. The experiment in a line: Peptide cytotoxicity, Trypan Blue exclusion assay. The class given is cell-based, mouse. Conditions: for cell death: 170 μM peptide, negative control 10%. As to the method: as §1
[3] abbreviates: 170 μM peptide concentration, compared with the negative control.

The term MIC denotes the smallest concentration in the dilution series that meets the test's criterion for growth inhibition.

Ends that are not written are not given here.

Consider “ILSLRWRWKWWKK-NH2 [Peptide B1, ILSLRWRWKWWKK]”, for which the MIC against M. tuberculosis MC26020 amounted to 32 µg/mL.
As for “ILSLRWRWWKWKK-NH2 [Peptide B3, ILSLRWRWWKWKK]”, the MIC in data set [1] stood at 64 µg/mL; in the data set with M. tuberculosis MC26020, 8 µg/mL. Further, the “cytotoxicity” value is “Slight cytotoxicity” in data set [2] (setting [3]); “some degree of cytotoxicity” in data set [2] (milder than on J774.16 cells, concentration not restated (320 μg/mL in preceding sentence)); “moderate cytotoxicity” in the data set on macrophage J774.16 cells (320 μg/mL, 24 hr). In the data set with macrophage J774.16 cells, the “cytotoxic concentration (320 μg/mL) relative to MIC against mycobacteria and streptococci” value was “at least five times the MIC”. Moreover, in the data set on macrophage J774.16 cells (24 hr), the cell death was 40%.
The substance “ILSLRWWRKWWKK-NH2 [Peptide B2, ILSLRWWRKWWKK]” gave an MIC with M. tuberculosis MC26020 of 32 µg/mL. The “cytotoxicity” value in data set [2] (setting [3]) is “Slight cytotoxicity”. The substance further gave a cell death in the data set with macrophage J774.16 cells (24 hr) of 20%.
As to “IRKLKSWKWLRWL-NH2 [Peptide B4, IRKLKSWKWLRWL]”, the MIC in the data set on M. tuberculosis MC26020 stood at 32 µg/mL.
